Values of other authors in patent publication US20040115261A1, “Controlled delivery of tetracycline compounds and tetracycline derivatives” (priority 2003, published 2004).

Conditions: based on steady-state pharmacokinetics, minimum antibiotic serum concentration = lowest concentration known to exert a significant antibiotic effect

CN(C)[C@@H]1C(O)=C(C(N)=O)C(=O)[C@@]2(O)C(O)=C3C(=O)c4c(O)cccc4[C@@](C)(O)[C@H]3C[C@@H]12 [tetracycline]
plasma antibiotic threshold level: 0.5 µg/mL
